Series [1] can be described thus: Cytotoxicity against HEK293T cells assessed as reduction in cell viability after 48 hrs by CellTiter 96 aqueous one solution assay. The series is classed as cell-based, HEK-293T. Conditions: human.
The test system of series [2] is Human immunodeficiency virus 1. Put plainly: Selectivity ratio of IC50 for HIV1 reverse transcriptase V106M mutant in HIV1 infected HEK293T cells to IC50 for wild-type HIV1 reverse transcriptase in HIV1 infected HEK293T cells.
In series [3] the test system is Human immunodeficiency virus 1. Put plainly: Selectivity ratio of IC50 for HIV1 reverse transcriptase K103N mutant in HIV1 infected HEK293T cells to IC50 for wild-type HIV1 reverse transcriptase in HIV1 infected HEK293T cells.
The test system of series [4] is Human immunodeficiency virus 1. Put plainly: Selectivity ratio of IC50 for HIV1 reverse transcriptase Y181C mutant in HIV1 infected HEK293T cells to IC50 for wild-type HIV1 reverse transcriptase in HIV1 infected HEK293T cells.

Molecules are shown by their SMILES. Some results are limits rather than exact numbers.

`CCCn1c(=O)[nH]c2cccc(Oc3cc(Cl)cc(C#N)c3)c21`: in series [1], the CC50 (in general, the concentration at which the toxic effect on the cells reaches its halfway point) at 48 h was 24.8 µM.

Consider `CCn1c(=O)[nH]c2cccc(Oc3ccnc(C#N)c3)c21`, for which the half-maximal cytotoxic concentration (CC50) at 48 h in series [1] was over 100 µM.

With `CCn1c(=O)[nH]c2cccc(Oc3cc(C#N)ccn3)c21`, the half-maximal cytotoxic concentration (CC50) at 48 h in series [1] is over 100 µM.

In the case of `CCn1c(=O)[nH]c2cccc(Oc3cc(C#N)cc(C#N)c3)c21`, in series [1], the CC50 at 48 h turned out to be 96.6 µM.

For the compound `CCn1c(=O)[nH]c2cccc(Oc3cc(C)cc(C)c3)c21`, the CC50 at 48 h in series [1] is 7.16 µM.

In the case of `Cc1ccnc2c1NC(=O)c1cccnc1N2C1CC1` [NEVIRAPINE], in series [1], the CC50 at 48 h amounted to 92.7 µM.

For the compound `CCn1c(=O)[nH]c2cccc(Oc3cc(C#N)cc(/C=C/C#N)c3)c21`, the CC50 at 48 h in series [1] came to 9.7 µM.

In the case of `CCn1c(=O)[nH]c2cccc(Oc3cc(Cl)cc(C#N)c3)c21`, the Ratio IC50 in series [2] was over 10. For the same compound, the 50% cytotoxic concentration (CC50) at 48 h in series [1] amounted to 24.1 µM.

`CC1(C)OC(=O)Nc2cccc(Oc3cc(Cl)cc(C#N)c3)c21`: the cytotoxic concentration (CC50) at 48 h in series [1] is 82.7 µM.

Take `CCn1c(=O)[nH]c2cccc(Oc3cccc4ccccc34)c21`: the cytotoxic concentration (CC50) at 48 h in series [1] worked out at 31.3 µM.

Consider `Cn1c(=O)[nH]c2cccc(Oc3cc(Cl)cc(C#N)c3)c21`, for which, in series [2], the Ratio IC50 is over 10. Besides, the CC50 at 48 h in series [1] was 53.4 µM.

Consider `CCn1c(=O)[nH]c2cccc(Oc3ccnc(Cl)c3)c21`, for which the CC50 at 48 h in series [1] worked out at 95.1 µM.

In the case of `CCn1c(=O)[nH]c2cccc(Oc3ccccc3)c21`, the CC50 at 48 h in series [1] turned out to be 55 µM.

Regarding `CCC(c1ccccc1)n1c(=O)[nH]c2ccc(Cl)cc21` (racemic), in series [1], the cytotoxic concentration (CC50) at 48 h was 55 µM. Moreover, the Ratio IC50 in series [3] and in series [4] was over 10 each time.

Values taken from ChEMBL document CHEMBL4330184, “Aryl Substituted Benzimidazolones as Potent HIV-1 Non-Nucleoside Reverse Transcriptase Inhibitors” (ACS Med Chem Lett, 2019).
